# Columns and labels:
# aortic allografts = experiment: Immunohistology of aortic grafts: activation markers and cytokines; type: in vivo, rat; design: key: −: not present; +: low; ++: moderate; +++: frequent
# Method: Immunohistological analysis. Immunohistology was performed on cryostat sections as previously described in detail. Guillot et al., J. Immunol. 164:5258-68 (2000). Immunohistological analysis of infiltrating leukocytes was performed at day 30 after transplantation using the following mouse Mab: a mixture of two anti-leukocyte CD45 Mabs (OX1 AND OX30), anti-monocyte/macrophage CD68 (ED1), anti-αβ TCR (R.7.3), anti-CD4 (W3/25), anti-CD8 α chain (OX8), anti-monomorphic class II MHC antigens (OX6), anti-CD25 (OX39) (all from ECACC, Wiltshire, UK), anti-CD54 (ICAM-1) (Seikagaku America Inc., Rockville, Mass.), anti-CD86 (B7.2) (Pharmingen, Franklin Lakes, N.J.) and an irrelevant mouse Mab (3G8, anti-human CD16). VSMCs were detected using a mouse anti-α human smooth muscle actin Mab (Sigma, St. Louis, Mo.). Slides were then incubated with a biotin-conjugated anti-mouse immunoglobulin antibody (Vector Laboratories, Burlingame, Calif.), followed by HRP-conjugated streptavidin (Vector Laboratories) and VIP substrate. IFNγ expression was analyzed using a hamster Mab (Genzyme, Cambridge, Mass.). The IP10 chemiokine was detected using a goat anti-IP10 antibody (Santa Cruz, Santa Cruz, Calif.). Rabbit antibodies were used to detect iNOS (Transduction Laboratories, Lexington, Ky.), HO-1 (Stressgen) and TGFβ1 (Promega, Madison, Wis.). Biotin-conjugated anti-hamster, anti-goat and anti-rabbit antibodies were from Jackson Immunoresearch. Binding of these antibodies was detected by incubation with HRP-conjugated streptavidin and VIP substrate. Tissue sections were counterstained with hematoxylin and lithium carbonate.
# C57BL/6 ApoE (−/−) mice = experiment: Carotid wire injury in atherogenic ApoE-/- mouse, neointimal formation; type: in vivo; conditions: day -1 to day 28
# Method: The effects of CO generated though metabolic degradation of methylene chloride are investigated in an atherosclerotic mouse carotid intimal denudation model. Female C57BL/6 ApoE (−/−) mice (10-12 weeks old, n=12/group) are fed Western diet for 1 week prior to injury and 4 weeks after injury. On day 0 mice are anesthesized with ip injection of ketamine (80 mg/kg) & xylazine (5 mg/kg). The left carotid artery is isolated and two ligatures (6-O silk) are placed around the external carotid artery, ligatures are also placed around the common and internal carotid arteries. After the distal external carotid ligatures are tied, the carotid is incised with Vannas scissors proximal to the ligature. A curved flexible wire (0.35 mm/0.014 in diameter) is introduced into the external carotid and passed three times along the wall of the common carotid while being rotated. Upon removal of the wire the proximal carotid ligature is tied and the skin is reopposed with 6-O silk.
# Methylene chloride (25, 100, 400 mg/kg/day) is administered intraperitoneally or orally starting on day-1 until day 28. A control group is treated with vehicle. On day 28 animals are sacrificed and after incision, the right and left common, external, and internal carotids are ligated. After sternotomy, common carotids are dissected further to the aortic arch. A 27-gauge needle is placed in the left ventricle and a systemic perfusion with phosphate buffered paraformaldehyde (100 mM, 4% wt/vol, pH 7.3) is performed at 100 mmHg via the left ventricular cannula. Subsequently, the common, internal and external carotid arteries are transected and removed. Specimens are dehydrated in ethanol and xylene, and embedded in paraffin. Tissue sections are stained and VSMC proliferation is assessed microscopically by histomorphometry. Methylene chloride therapy at 400, 100, and 25 mg/kg/day inhibits neointimal formation by 90%, 75% and 30% respectively.
smiles,measurement,setting,value
"[C-]#[O+] [CO, carbon monoxide]",CD54 (ICAM-1),aortic allografts; adventitia,+++
same,CD86 (B7.2),aortic allografts; adventitia,+
same,INOS,aortic allografts; adventitia,+++
same,IP10,aortic allografts; adventitia,+
same,MHC-II,aortic allografts; adventitia,++
same,TGFβ,aortic allografts; adventitia,++
same,CD54 (ICAM-1),aortic allografts; intima,++
same,CD86 (B7.2),aortic allografts; intima,+
same,INOS,aortic allografts; intima,++
same,IP10,aortic allografts; intima,+
same,MHC-II,aortic allografts; intima,++
same,TGFβ,aortic allografts; intima,+
same,CD54 (ICAM-1),aortic allografts; media,−
same,CD86 (B7.2),aortic allografts; media,−
same,INOS,aortic allografts; media,++
same,IP10,aortic allografts; media,+
same,MHC-II,aortic allografts; media,−
same,TGFβ,aortic allografts; media,+
ClCCl [methylene chloride],inhibition of neointimal formation,C57BL/6 ApoE (−/−) mice; 25 mg/kg/day,30%
same,inhibition of neointimal formation,C57BL/6 ApoE (−/−) mice; 100 mg/kg/day,75%
same,inhibition of neointimal formation,C57BL/6 ApoE (−/−) mice; 400 mg/kg/day,90%
